From patent publication EP4603105A1, “PHARMACEUTICAL COMPOSITION CONTAINING CYCLIC COMPOUND HAVING SELECTIVE KRAS INHIBITORY EFFECT AGAINST HRAS AND NRAS” (CHUGAI SEIYAKU KABUSHIKI KAISHA, priority 2022, dated 2024)
*1 amine or outer side, *2 acyl side, *3 side chain or, on linkers, in order; H or OH if unused. Where a SMILES comes first, the peptide text is derived from it. Bridges are numbered along the chain shown (N, C = ends). [ ]: non-standard residue; d: D form. The star is where a group is joined. hPhe(3-Cl-4-CF3) = N[C@@H](CCc1ccc(C(F)(F)F)c(Cl)c1)C(=O)O; NPrPhe(4-CF3) = CCCN[C@@H](Cc1ccc(C(F)(F)F)cc1)C(=O)O; X37 = Cc1ccc(C[C@@H](C(=O)[*:2])N(CCC(C)C)[*:1])cc1; X52 = C#CCN([C@@H](Cc1ccc(C)cc1)C(=O)[*:2])[*:1]; NMeGly(cPent) = CN[C@H](C(=O)O)C1CCCC1; Pro(4S-Me) = C[C@@H]1CN[C@H](C(=O)O)C1; Gly(cPent) = N[C@H](C(=O)O)C1CCCC1; Hyp = O=C(O)[C@@H]1C[C@@H](O)CN1; NMeD = CN[C@@H](CC(=O)O)C(=O)O; NMeL = CN[C@@H](CC(C)C)C(=O)O; Morpholide = C1CN(*)CCO1; NMeA = CN[C@@H](C)C(=O)O; Ac5c = NC1(C(=O)O)CCCC1; Aze = O=C(O)[C@@H]1CCN1; Ac4c = NC1(C(=O)O)CCC1; Sar = CNCC(=O)O

System: human lung cancer strain NCI-H441
Type: cell-based
Experimental: A test compound was dispensed into a U-bottom 384-well plate as 40 nL serially diluted dimethyl sulfoxide solutions using a liquid handler Echo (LABCYTE). […] This cell suspension was dispensed in an amount of 40 µL per well into a plate containing the test compound, and cultured at 37°C in a 5% carbon dioxide gas incubator. Four days later, 20 µL of CellTiter-Glo (registered trademark) (Promega) was added to each well and […] was measured. […]

`CC[C@H](C)[C@@H]1NC(=O)[C@H](CC)N(C)C(=O)C[C@@H](C(=O)N(C)CC)N(C)C(=O)[C@H](C2CCCC2)N(C)C(=O)C2(CCC2)NC(=O)[C@@H]2C[C@H](C)CN2C(=O)[C@H](CCc2ccc(C(F)(F)F)c(OC)c2)NC(=O)CN(C)C(=O)[C@H](Cc2ccc(C)cc2)N2CC/C=C\C[C@@H](C2=O)N(C)C(=O)CN(C)C1=O` [PP1853] was tested. Which IC50 did it give?
Its IC50 is 30.4 nM.

For `C#CCN1C(=O)[C@@H]2CCN2C(=O)[C@H](C)N(C)C(=O)[C@H]([C@@H](C)CC)NC(=O)[C@H](CC(C)C)N(C)C(=O)C[C@@H](C(=O)N2CCOCC2)N(C)C(=O)[C@H](C2CCCC2)N(C)C(=O)C2(CCCC2)NC(=O)[C@@H]2CCCN2C(=O)[C@H](CCc2ccc(C(F)(F)F)c(Cl)c2)NC(=O)CN(C)C(=O)[C@@H]1Cc1ccc(C)cc1` [PP0090] ([NMeL]I[NMeA][Aze][X52][Sar][hPhe(3-Cl-4-CF3)]P[Ac5c][NMeGly(cPent)][NMeD]-Morpholide; lactam N-11), which IC50 is on record?
Its IC50 is 1.9 nM.

With `CC[C@H](C)[C@@H]1NC(=O)[C@H](CC(C)C)N(C)C(=O)C[C@@H](C(=O)N2CCOCC2)N(C)C(=O)[C@H](C2CCCC2)NC(=O)C2(CCCC2)NC(=O)[C@@H]2CCCN2C(=O)[C@H](CCc2cc(F)c(C(F)(F)F)c(F)c2)NC(=O)CN(C)C(=O)[C@H](Cc2ccc(C(F)(F)F)cc2)N2CCCCC[C@@H](C2=O)N(C)C(=O)CN(C)C1=O` [PP0478] as the compound, how does the IC50 read?
The IC50 was 2750 nM.

How did the IC50 turn out when `CCCN1C(=O)CN(C)C(=O)CN(C)C(=O)[C@H](C2CCCC2)NC(=O)[C@H](CC(C)C)N(C)C(=O)C[C@@H](C(=O)N2CCOCC2)N(C)C(=O)[C@H](C2CCCC2)N(C)C(=O)C2(CCCC2)NC(=O)[C@@H]2CCCN2C(=O)[C@H](CCc2ccc(C(F)(F)F)c(Cl)c2)NC(=O)CN(C)C(=O)[C@@H]1Cc1ccc(C(F)(F)F)cc1` [PP0251] ([NMeL][Gly(cPent)][Sar][Sar][NPrPhe(4-CF3)][Sar][hPhe(3-Cl-4-CF3)]P[Ac5c][NMeGly(cPent)][NMeD]-Morpholide; lactam N-11) was run?
Its IC50 is 8.4 nM.

For `CCO[C@@H]1C[C@H]2C(=O)NC3(CCC3)C(=O)N(C)[C@@H](C3CCCC3)C(=O)N(C)[C@H](C(=O)N(C)CC)CC(=O)N(C)[C@@H](C(C)C)C(=O)N[C@@H]([C@@H](C)CC)C(=O)N(C)CC(=O)N(C)[C@H]3C/C=C\CCN(C3=O)[C@@H](Cc3ccc(C(F)(F)F)cc3)C(=O)N(C)CC(=O)N[C@@H](CCc3ccc(C(F)(F)F)c(OC)c3)C(=O)N2C1` [PP2019], which IC50 is on record?
Its IC50 is 4.5 nM.

Which IC50 does the source give for `CCCN1C(=O)[C@@H]2CCN2C(=O)[C@H](C)N(C)C(=O)[C@H]([C@@H](C)CC)NC(=O)[C@H](CC(C)C)N(C)C(=O)C[C@@H](C(=O)N(C)C)N(C)C(=O)[C@H](C2CCCC2)N(C)C(=O)C2(CCC2)NC(=O)[C@@H]2C[C@@H](OCC)CN2C(=O)[C@H](CCc2ccc(C(F)(F)F)c(Cl)c2)NC(=O)CN(C)C(=O)[C@@H]1Cc1ccc(C(F)(F)F)cc1` [PP0439] ([NMeL]I[NMeA][Aze][NPrPhe(4-CF3)][Sar][hPhe(3-Cl-4-CF3)][Hyp](Et)[Ac4c][NMeGly(cPent)][NMeD]-NMe2; lactam N-11) here?
Its IC50 is 0.7 nM.

Which IC50 does the source give for `CC[C@H](C)[C@@H]1NC(=O)[C@H](CC(C)C)N(C)C(=O)C[C@@H](C(=O)N2CCOCC2)N(C)C(=O)[C@H](C2CCCC2)N(C)C(=O)C2(CCCC2)NC(=O)[C@@H]2CCCN2C(=O)[C@H](CCc2ccc(C(F)(F)F)c(Cl)c2)NC(=O)CN(C)C(=O)[C@H](Cc2ccc(C)cc2)N(CCC(C)C)C(=O)CN(C)C(=O)CN(C)C1=O` [PP0098] ([NMeL]I[Sar][Sar][X37][Sar][hPhe(3-Cl-4-CF3)]P[Ac5c][NMeGly(cPent)][NMeD]-Morpholide; lactam N-11) here?
The IC50 was 9.4 nM.

Which IC50 does the source give for `CCCN1C(=O)[C@@H]2CCN2C(=O)[C@H](C)N(C)C(=O)[C@H]([C@@H](C)CC)NC(=O)[C@H](CC(C)C)N(C)C(=O)C[C@@H](C(=O)N2CCOCC2)N(C)C(=O)[C@H](C2CCCC2)N(C)C(=O)C2(CCCC2)NC(=O)[C@@H]2C[C@H](C)CN2C(=O)[C@H](CCc2ccc(C(F)(F)F)c(Cl)c2)NC(=O)CN(C)C(=O)[C@@H]1Cc1ccc(C(F)(F)F)cc1` [PP0455] ([NMeL]I[NMeA][Aze][NPrPhe(4-CF3)][Sar][hPhe(3-Cl-4-CF3)][Pro(4S-Me)][Ac5c][NMeGly(cPent)][NMeD]-Morpholide; lactam N-11) here?
The IC50 was 9.9 nM.
